Structures are written as SMILES.

This note sets out measurements from patent US20240285557A1, “PHARMACEUTICAL COMPOSITION COMPRISING LIPASE INHIBITOR FOR TREATMENT OR TREATMENT OF RNA VIRAL INFECTIONS” (priority 2021, published 2024).

This experiment concerns SARS-COV-2 KCDC03 strain (A lineage), KDCA51463 strain (Alpha lineage), and KDCA55905 strain (Beta lineage). The class given is in vivo, Golden Syrian hamsters. To be noted: 40 mg kg^−1 day^−1 lipase inhibitor, 2.5 mg/kg/day remdesivir.

As for `CCN(CC)C(=O)Nc1cccc(-c2ccc(N(C)C)cc2)c1` [DABPU-DE], the “pneumonia severity (and weight loss), comparison between treatment groups” value was “more improvement”.
